Assay results taken from ChEMBL document CHEMBL1201862, “PubChem BioAssay data set” (2004).
“And” between values parts separate entries of the source, which are not always exact repeats. Identical values can stand only once. The source made the active and inactive calls.

Key:
[1] = target: T1, Sentrin-specific protease 6 (Homo sapiens, UniProt Q9GZR1); experiment: inhibition of human SENP6 catalytic domain – biochemical, luminescence, set 2, SAR follow-up (AID 588598); assay type: functional
T1 sequence (Q9GZR1 whole entry): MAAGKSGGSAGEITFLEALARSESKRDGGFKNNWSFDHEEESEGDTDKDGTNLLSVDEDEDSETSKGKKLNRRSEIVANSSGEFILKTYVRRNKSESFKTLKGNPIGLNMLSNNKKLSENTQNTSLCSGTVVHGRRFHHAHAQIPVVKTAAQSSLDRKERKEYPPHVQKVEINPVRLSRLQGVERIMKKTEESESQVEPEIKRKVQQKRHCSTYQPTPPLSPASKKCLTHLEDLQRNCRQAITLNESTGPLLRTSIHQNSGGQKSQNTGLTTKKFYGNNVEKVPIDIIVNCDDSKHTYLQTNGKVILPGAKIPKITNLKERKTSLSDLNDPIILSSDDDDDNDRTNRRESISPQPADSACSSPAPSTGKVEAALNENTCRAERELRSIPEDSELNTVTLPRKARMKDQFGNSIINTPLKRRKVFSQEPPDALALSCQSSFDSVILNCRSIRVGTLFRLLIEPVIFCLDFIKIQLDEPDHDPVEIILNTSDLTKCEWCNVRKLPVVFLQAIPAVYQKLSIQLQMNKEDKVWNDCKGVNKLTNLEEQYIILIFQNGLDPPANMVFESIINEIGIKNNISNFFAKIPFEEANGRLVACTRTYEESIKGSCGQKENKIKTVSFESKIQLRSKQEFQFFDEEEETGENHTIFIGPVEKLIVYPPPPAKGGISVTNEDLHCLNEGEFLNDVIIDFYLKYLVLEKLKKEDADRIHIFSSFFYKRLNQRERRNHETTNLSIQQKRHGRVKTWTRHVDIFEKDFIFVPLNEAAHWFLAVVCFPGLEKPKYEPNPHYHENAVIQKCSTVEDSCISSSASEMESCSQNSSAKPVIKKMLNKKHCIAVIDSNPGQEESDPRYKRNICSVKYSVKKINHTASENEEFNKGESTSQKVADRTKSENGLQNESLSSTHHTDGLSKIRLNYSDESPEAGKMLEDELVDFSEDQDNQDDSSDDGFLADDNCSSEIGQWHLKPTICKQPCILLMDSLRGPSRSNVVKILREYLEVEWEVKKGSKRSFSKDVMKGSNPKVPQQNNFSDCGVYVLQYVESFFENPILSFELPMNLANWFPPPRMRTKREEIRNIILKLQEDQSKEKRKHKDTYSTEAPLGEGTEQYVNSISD

[2] = target: T2, Sentrin-specific protease 8 (Homo sapiens, UniProt Q96LD8); experiment: inhibition of sentrin protease 8 – biochemical, luminescence, set 2, SAR follow-up (AID 588601); assay type: functional
T2 sequence (Q96LD8 whole entry): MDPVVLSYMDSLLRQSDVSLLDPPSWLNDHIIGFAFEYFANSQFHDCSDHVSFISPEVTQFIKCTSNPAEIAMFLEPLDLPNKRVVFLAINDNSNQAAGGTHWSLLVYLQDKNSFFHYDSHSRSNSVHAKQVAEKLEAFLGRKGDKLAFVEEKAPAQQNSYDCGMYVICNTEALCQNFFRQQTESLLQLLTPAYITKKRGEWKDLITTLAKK

Caspase-3 = target: T3, Caspase-3 (Homo sapiens, UniProt P42574); experiment: inhibition of recombinant caspase-3 activity – biochemical, luminescence, set 2, selectivity assay for SENP protease inhibitor project, SAR follow-up (AID 588599); assay type: functional
T3 sequence (P42574 whole entry): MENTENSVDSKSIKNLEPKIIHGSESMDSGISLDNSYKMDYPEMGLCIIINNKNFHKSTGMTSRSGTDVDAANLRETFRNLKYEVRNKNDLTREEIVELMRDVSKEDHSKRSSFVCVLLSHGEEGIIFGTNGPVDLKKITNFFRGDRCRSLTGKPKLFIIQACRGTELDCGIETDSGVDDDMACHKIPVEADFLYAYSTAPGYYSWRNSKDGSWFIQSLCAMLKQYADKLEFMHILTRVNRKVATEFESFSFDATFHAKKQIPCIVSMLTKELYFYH

[3] = target: T4, Sentrin-specific protease 7 (Homo sapiens, UniProt Q9BQF6); experiment: inhibition of human SENP7 cleavage activity – biochemical, luminescence, set 2, SAR follow-up (AID 588600); assay type: functional
T4 sequence (Q9BQF6 whole entry): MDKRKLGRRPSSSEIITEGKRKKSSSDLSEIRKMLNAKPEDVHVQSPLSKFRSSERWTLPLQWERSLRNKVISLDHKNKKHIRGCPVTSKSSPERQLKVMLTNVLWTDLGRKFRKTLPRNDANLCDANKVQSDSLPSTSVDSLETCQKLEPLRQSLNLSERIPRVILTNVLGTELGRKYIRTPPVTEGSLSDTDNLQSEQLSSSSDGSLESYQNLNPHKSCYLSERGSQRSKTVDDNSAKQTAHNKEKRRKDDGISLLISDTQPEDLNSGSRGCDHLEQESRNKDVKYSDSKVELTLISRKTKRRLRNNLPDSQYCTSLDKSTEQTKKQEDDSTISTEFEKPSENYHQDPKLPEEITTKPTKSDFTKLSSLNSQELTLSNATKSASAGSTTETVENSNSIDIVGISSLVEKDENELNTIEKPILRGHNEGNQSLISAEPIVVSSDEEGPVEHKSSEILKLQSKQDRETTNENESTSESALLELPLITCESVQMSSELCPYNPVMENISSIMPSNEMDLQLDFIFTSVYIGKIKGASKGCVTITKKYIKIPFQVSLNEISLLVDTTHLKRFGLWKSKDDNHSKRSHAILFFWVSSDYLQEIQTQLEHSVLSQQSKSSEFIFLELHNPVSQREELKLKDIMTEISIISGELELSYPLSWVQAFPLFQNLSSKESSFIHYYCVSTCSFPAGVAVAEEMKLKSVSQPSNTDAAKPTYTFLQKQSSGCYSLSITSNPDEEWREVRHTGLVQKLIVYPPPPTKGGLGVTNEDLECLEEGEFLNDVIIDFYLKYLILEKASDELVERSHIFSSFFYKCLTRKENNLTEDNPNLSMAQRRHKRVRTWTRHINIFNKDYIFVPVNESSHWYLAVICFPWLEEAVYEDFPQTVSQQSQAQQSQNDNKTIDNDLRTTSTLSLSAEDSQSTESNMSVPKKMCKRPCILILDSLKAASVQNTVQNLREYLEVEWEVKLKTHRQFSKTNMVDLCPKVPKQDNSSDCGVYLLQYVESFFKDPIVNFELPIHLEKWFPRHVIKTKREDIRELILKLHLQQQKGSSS

Candida albicans [4] = experiment: antifungal activity against resistant Candida strain – CaCi-8, fluconazole, Alamar Blue, dry powder, dose response (AID 488807); assay type: functional, organism-based
Candida albicans [5] = experiment: Candida growth effect without fluconazole – C. albicans CaCi-2, dry powder, counter-screen for antifungal drug resistance project, dose response (AID 488802); assay type: functional, organism-based
NIH3T3 = experiment: mammalian cell viability counter-check – Alamar Blue, fluconazole, dry powder, cytotoxicity control for antifungal drug resistance project, dose response (AID 488809); assay type: functional, cell-based; conditions: Mus musculus
[6] = loss of viability in HepG2 cells – cell-based, CellTiter-Glo, cherry-picked, cytotoxicity control for Shn3 inhibitor project, dose response (AID 624134); assay type: functional
[7] = Fluorescence-based cell-based high throughput dose response assay for inhibitors of the interaction of nucleotide-binding oligomerization domain containing 2 (NOD2) and the receptor-interacting serine-threonine kinase 2 (RIPK2).; assay type: functional; conditions: Homo sapiens
[8] = non-specific 3'UTR reporter inhibition in Clone20-Shn3RL – cell-based, Renilla luciferase, cherry-picked, counter-screen for Shn3 inhibitor project, dose response (AID 624133); assay type: functional
Beta Lactamase = Beta Lactamase (Pseudomonas aeruginosa, UniProt Q932Y6); experiment: BLA reporter interference, concentration series – BLA reporter cells, FRET fluorescence, artefact control for NOD2-RIPK2 interaction inhibitor project, dose response (AID 651552); assay type: functional, cell-based
[9] = target: Neurotensin receptor type 1 (Homo sapiens, UniProt P30989); assay type: functional;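 also: Image-based confirmatory dose-response assay measuring agonist activity at NTR1; NTR1-expressing U2OS osteosarcoma cells imaged for beta-arrestin GFP spot formation; agonist potency where compounds increase beta-arrestin recruitment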
[10] = target: Latent membrane protein 1 (Human herpesvirus 4 (strain B95-8), UniProt P03230); experiment: LMP1 TES1 pathway selectivity over dsRED control – imaging, HEK293T, dual-color eGFP/dsRED, cherry-picks, selectivity assay for LMP1 NF-kB inhibitor project, dose response (AID 588398); assay type: functional, cell-based
Beta-galactosidase = Beta-galactosidase (Escherichia coli, UniProt Q8VNN2); experiment: detection-enzyme interference by beta-gal modulators – biochemical, E. coli enzyme, set 3, artefact control for CCR6 antagonist project, dose response (AID 504712); assay type: functional
[11] = reduction of Shn3 3'UTR-driven luciferase in osteoblasts – cell-based, Clone20 osteoblasts, firefly luciferase, cherry-picked, dose response (AID 624132); assay type: functional;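 also: firefly luciferase luminescence from reporter carrying the Shn3 3'UTR in osteoblasts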
[12] = target: Induced myeloid leukemia cell differentiation protein Mcl-1 (Homo sapiens, UniProt Q07820); assay type: functional
HEK293 = experiment: EBV LMP1 TES2 canonical NF-kB signalling blockers – cell-based, HEK293, luciferase, cherry-pick, dose response (AID 588343); assay type: functional; conditions: Homo sapiens
[13] = Vero cell viability loss – purified and synthesized compounds, set 6, cytotoxicity control for M. tuberculosis inhibitor project, dose response (AID 588445); assay type: functional; conditions: Mycobacterium tuberculosis
[14] = Luminescence Cell-Based Dose Confirmation HTS to Identify Inhibitors of Platelet Dense Granule Release. [Related pubchem assays: 1663 (Primary HTS), 1678 (Summary of Project)]; assay type: functional
[15] = target: Luciferin 4-monooxygenase (Photinus pyralis, UniProt P08659); experiment: inhibition of purified Photinus pyralis luciferase – biochemical, luminescence, dose response (AID 1891)
[16] = THP-1 cell cytotoxicity, cytotoxicity control, set 5 (AID 588443); assay type: functional
[17] = target: Protein disulfide-isomerase (Homo sapiens, UniProt P07237); experiment: inhibition of PDI-driven insulin aggregation – biochemical, turbidity, absorbance, cherry-picked samples, dose response (AID 602350); assay type: functional
[18] = target: Scavenger receptor class B member 1 (Mus musculus, UniProt Q61009); experiment: blockers of DiI-HDL lipid transfer via SR-BI – cell-based, ldlA[mSR-BI] CHO, DiI fluorescence, dry powder, set 10, dose response (AID 624029); assay type: functional
Scavenger receptor class B member 1, sequence (Q61009 whole entry): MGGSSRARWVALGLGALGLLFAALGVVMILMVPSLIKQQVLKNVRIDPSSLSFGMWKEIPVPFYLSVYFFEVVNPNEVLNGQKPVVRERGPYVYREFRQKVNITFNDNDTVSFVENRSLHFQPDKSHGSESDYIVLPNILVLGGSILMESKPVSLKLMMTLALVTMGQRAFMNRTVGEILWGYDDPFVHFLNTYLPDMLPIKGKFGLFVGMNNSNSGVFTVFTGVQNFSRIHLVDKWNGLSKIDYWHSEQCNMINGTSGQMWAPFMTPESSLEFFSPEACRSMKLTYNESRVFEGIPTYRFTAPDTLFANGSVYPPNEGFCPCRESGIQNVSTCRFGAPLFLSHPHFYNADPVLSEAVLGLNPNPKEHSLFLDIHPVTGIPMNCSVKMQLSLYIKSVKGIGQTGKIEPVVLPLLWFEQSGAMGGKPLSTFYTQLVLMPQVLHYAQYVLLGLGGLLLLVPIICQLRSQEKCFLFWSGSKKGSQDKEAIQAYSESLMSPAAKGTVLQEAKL

Protein disulfide-isomerase, sequence (P07237 whole entry): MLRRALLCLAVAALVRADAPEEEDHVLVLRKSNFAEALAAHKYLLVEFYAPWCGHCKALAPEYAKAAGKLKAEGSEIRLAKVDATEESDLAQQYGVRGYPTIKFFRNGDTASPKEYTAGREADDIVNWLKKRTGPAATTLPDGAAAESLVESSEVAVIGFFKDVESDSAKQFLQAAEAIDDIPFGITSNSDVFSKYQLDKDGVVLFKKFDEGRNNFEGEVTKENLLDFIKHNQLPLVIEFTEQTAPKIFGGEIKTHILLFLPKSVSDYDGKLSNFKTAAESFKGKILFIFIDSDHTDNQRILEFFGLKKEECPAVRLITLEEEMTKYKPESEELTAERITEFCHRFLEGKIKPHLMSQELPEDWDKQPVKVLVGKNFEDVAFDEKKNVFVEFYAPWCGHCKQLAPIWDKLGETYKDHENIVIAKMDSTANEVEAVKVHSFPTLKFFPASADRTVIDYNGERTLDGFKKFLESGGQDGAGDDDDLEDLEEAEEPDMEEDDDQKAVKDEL
Induced myeloid leukemia cell differentiation protein Mcl-1, sequence (Q07820 whole entry): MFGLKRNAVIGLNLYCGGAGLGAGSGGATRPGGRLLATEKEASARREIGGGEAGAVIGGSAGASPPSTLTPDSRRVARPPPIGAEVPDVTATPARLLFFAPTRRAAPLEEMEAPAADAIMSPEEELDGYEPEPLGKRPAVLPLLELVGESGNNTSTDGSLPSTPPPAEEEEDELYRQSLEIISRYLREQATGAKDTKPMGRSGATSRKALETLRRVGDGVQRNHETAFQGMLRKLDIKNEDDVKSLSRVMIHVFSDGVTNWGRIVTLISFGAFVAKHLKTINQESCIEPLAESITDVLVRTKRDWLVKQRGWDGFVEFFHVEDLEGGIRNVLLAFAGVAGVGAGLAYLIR
Beta-galactosidase, sequence (Q8VNN2 whole entry): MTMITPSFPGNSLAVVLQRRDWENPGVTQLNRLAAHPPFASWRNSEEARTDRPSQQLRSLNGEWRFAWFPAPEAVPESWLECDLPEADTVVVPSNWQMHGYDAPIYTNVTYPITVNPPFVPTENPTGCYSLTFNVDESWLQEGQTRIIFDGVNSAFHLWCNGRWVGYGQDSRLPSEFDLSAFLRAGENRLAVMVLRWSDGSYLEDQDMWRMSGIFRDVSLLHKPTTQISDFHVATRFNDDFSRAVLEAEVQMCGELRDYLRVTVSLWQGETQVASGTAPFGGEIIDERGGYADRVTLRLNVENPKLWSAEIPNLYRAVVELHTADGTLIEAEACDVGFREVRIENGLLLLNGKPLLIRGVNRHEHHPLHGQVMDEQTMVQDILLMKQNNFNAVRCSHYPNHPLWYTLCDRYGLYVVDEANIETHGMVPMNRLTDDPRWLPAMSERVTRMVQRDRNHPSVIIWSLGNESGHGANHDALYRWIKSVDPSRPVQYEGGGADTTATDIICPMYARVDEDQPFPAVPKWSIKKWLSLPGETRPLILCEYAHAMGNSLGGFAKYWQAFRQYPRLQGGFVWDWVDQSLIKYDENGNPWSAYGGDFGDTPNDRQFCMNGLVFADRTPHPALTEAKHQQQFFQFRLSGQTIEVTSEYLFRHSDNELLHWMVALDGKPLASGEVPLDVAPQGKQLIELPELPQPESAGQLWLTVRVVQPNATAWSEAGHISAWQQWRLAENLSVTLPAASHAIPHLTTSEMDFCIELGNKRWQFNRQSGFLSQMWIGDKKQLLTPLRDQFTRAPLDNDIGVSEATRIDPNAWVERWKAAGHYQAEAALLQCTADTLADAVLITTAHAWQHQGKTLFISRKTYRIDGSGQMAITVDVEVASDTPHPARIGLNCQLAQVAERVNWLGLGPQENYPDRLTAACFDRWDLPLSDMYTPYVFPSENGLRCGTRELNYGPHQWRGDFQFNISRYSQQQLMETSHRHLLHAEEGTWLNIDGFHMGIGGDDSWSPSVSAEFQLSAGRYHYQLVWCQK
Latent membrane protein 1, sequence (P03230 whole entry): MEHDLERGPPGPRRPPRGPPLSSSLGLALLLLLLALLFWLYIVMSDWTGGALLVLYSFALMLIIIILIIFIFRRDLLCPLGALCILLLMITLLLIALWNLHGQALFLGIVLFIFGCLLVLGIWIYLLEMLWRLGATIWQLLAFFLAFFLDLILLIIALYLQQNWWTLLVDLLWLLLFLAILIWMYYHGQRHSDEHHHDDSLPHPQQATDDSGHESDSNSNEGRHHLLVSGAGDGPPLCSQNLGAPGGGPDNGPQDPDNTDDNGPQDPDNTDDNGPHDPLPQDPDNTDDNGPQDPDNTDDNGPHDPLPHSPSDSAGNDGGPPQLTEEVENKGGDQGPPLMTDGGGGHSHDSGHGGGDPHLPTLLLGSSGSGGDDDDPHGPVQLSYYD
Luciferin 4-monooxygenase, sequence (P08659 whole entry): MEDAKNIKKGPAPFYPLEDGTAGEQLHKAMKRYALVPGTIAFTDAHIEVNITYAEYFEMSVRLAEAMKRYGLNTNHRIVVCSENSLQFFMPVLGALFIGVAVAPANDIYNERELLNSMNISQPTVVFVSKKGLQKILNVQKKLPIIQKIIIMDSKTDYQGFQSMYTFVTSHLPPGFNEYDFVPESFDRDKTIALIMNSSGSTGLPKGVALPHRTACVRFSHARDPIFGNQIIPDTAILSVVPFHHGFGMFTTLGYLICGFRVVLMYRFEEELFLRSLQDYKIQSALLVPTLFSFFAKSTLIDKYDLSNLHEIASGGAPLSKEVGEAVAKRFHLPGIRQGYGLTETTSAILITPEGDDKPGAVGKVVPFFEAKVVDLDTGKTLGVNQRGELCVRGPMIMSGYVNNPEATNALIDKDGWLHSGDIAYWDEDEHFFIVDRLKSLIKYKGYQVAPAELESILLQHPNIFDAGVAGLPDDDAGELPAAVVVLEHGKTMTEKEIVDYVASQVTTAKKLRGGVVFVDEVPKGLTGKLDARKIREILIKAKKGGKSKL
Neurotensin receptor type 1, sequence (P30989 whole entry): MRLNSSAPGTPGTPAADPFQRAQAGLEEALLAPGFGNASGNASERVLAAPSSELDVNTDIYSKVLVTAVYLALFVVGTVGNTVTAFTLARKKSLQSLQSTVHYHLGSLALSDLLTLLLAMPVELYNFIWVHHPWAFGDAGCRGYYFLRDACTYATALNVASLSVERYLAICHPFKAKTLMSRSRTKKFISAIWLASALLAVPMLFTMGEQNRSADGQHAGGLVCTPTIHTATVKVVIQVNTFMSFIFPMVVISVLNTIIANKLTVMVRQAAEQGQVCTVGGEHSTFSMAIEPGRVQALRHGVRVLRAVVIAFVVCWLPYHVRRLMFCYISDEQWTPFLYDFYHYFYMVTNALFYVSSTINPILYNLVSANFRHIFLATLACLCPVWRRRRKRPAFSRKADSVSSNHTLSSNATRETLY
Beta Lactamase, sequence (Q932Y6 whole entry): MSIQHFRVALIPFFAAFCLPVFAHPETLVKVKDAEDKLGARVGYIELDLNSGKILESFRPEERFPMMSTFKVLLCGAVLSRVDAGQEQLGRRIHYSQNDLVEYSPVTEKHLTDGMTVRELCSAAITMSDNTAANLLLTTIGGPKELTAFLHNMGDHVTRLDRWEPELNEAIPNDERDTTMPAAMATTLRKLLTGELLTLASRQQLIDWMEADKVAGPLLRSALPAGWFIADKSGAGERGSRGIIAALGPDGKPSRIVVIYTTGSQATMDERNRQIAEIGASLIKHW

NS(=O)(=O)c1ccc(CCNC(=O)C(=O)c2c[nH]c3ccccc23)cc1
inactive: IC50 [1] > 99 µM | IC50 [2] > 99 µM | IC50 (Caspase-3) > 99 µM | IC50 [3] > 99 µM

COc1ccc(NC(=O)Cn2c3ccccc3c3nc4n(c(=O)c32)CCS4)cc1
active: AC50 (Candida albicans [4]) 12.7 µM | AC50 (Candida albicans [5]) 50.1 µM | AC50 (NIH3T3) 34.2 µM

CCOc1ccc(/C=C/[N+](=O)[O-])c2ccccc12
active: AC50 [6] 3.78 µM | IC50 [7] 1.76 µM | AC50 [8] 13.9 µM | EC50 [9] 9.56 µM | AC50 [10] 1.63 µM | AC50 [11] 4.27 µM | IC50 [12] 2.18 µM | AC50 (HEK293) 4.67 µM
inactive: IC50 (Beta Lactamase) 43.1 µM | IC50 (Beta-galactosidase) > 66.6 µM

O=C(NCCc1ccc(Cl)cc1)c1ccc(CNc2c(N3CCOCC3)c(=O)c2=O)cc1
active: CC50 [13] > 100 µM | CC50 [16] > 100 µM
> 112 µM (not active): EC50 [14] | EC50 [15]

C[C@@H]1CN([C@H](C)CO)C(=O)c2cc(NC(=O)Cc3cn(C)c4ccccc34)ccc2O[C@H]1CN(C)S(=O)(=O)c1ccc(F)cc1
active: AC50 [17] 1.26 µM and 16.4 µM | AC50 [18] 0.00202 µM
